In patent publication EP4782449A1, “TRICYCLIC PYRIDINE COMPOUND ACTING AS SARM1 ENZYME ACTIVITY INHIBITOR, AND USE THEREOF” (Artivila (ShenZhen) Innovation Center, Ltd., priority 2023, dated 2025):

Legend:
SARM1 = biological target: T1, SARM1 (Homo sapiens, UniProt Q6SZW1); assay: In vitro biochemical assay for inhibiting SARM1 enzyme activity (PC6 fluorescence, NADase); settings: full-length SARM1 from transfected HEK293 cells; 50 µM NAD, 50 µM PC6, 50 µM NMN activator; room temperature, 30 minutes; read-out: IC50
T1 construct: inventors produced full-length SARM1 for NAD enzyme activity experiments, and used it for screening; His (C); made in house; host or cells: HEK293 cells, transient transfection; supernatant of digitonin lysate, no further purification described
T1 sequence (Q6SZW1 28-724): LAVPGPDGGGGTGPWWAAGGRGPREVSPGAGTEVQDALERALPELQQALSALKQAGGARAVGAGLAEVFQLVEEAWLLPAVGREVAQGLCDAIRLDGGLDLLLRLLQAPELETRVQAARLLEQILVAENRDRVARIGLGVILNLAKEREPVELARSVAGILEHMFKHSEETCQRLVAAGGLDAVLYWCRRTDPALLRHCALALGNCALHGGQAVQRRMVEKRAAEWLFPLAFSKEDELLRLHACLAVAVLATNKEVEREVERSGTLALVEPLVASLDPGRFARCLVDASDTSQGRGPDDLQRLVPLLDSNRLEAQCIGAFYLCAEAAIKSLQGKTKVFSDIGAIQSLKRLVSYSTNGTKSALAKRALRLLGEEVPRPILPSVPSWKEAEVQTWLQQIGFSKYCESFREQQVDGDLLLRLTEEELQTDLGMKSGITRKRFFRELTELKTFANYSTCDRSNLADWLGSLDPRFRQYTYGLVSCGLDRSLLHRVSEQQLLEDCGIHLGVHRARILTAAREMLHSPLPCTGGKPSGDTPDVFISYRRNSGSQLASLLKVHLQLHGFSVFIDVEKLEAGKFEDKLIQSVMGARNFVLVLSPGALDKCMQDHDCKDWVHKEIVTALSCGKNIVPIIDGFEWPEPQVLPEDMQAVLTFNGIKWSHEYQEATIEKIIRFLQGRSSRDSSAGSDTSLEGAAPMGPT
Description: The gene sequence of SARM1 protein was amplified using PCR, and the PCR amplification product was constructed into pcDNA3.1-HIS-C plasmid. The above construction was completed by YouBio(Hunan, China). HEK293 cells were cultured in 10 cm dishes using DMEM, and the cells were transfected with 15 μg pcDNA3.1-SARM[…]-C expression plasmid on the following day. Cells were collected 48 hours after transfection, and SARM1 protein expressed in the cells was obtained by digitonin lysis for in vitro activity assay experiments. The specific procedure was as follows: Cells were digested with trypsin-EDTA, then centrifuged at 1000 rpm for 5 minutes, washed once with PBS, and then resuspended in PBS containing 100 μM digitonin, with 0.6 mL PBS for the cells in per 10 cm dish, and lysed for 5 minutes. […] Then the supernatant containing SARM1 protein was collected by centrifugation at 5000 rpm for 10 minutes. […] A group without inhibitor was used as control group. All mixtures were incubated at room temperature for 10 minutes. Then, 50 μM NAD and 50 μM PC6 as substrates and 50 μM NMN as an activator were added to the SARM1 protein incubated with the inhibitor, and the reaction was carried out at room temperature for 30 minutes. The concentrations of each component were the final concentrations in the reaction system. […] Finally, the reaction rate was used to represent the protein activity and calculate the half-maximal inhibitory concentration.

[1] = system: dorsal root ganglion explants; assay: Axonal Wallerian degeneration assay in mouse DRG explant culture; type: cell-based, C57BL/6 male mice; settings: 10 µM test compound, 2 hours pretreatment, axons transected, images at 0 hour and 24 hours
From the text: The experimental method was based on Gerdts J et al. (Gerdts J, Sasaki Y, Vohra B, Marasa J, Milbrandt J. Image-based screening identifies novel roles for IkappaB kinase and glycogen synthase kinase 3 in axonal degeneration. J Biol Chem. 2011 Aug 12;286(32):28011-8).
Dorsal root ganglia were dissected from 2-month-old C57BL/6 male mice and placed in 35 mm culture dishes containing pre-cooled HBSS buffer. Excess tissue from each dorsal root ganglion was removed and cut into 2-3 explants using a scalpel, and the explants were planted in wells of a 96-well plate coated with 100 ng/mL Matrigel (Corning). 100 µL of DRG culture medium (Neurobasal medium (Gibco) containing 2% B-27 (Gibco), 1% GlutaMax (Gibco), and 10 ng/mL NGF (MCE)) was added, then cultured in a 37°C incubator for one week, with medium change on day 4, and experiments were performed on day 8.
0.1 µL of 10 mM test compound was dissolved in 100 µL DRG culture medium to prepare new culture medium containing 10 µM test compound. The culture medium in the 96-well plate was aspirated and new culture medium containing the test compound was added. Then the dorsal root ganglion explants were incubated with the medium in a 37°C incubator for 2 hours for pre-protection. After 2-hour pretreatment, a glass electrode was used to transect axons in the area near the tissue block, and bright-field images of axons in the same area were captured at 0 hour and 24 hours post axonal degeneration using a 20x objective lens of a microscope (Olympus). Axonal integrity was evaluated using an in-house developed script.

SMILES	IC50 (SARM1) [µM]	Degree of Protection Against Axonal Wallerian Degeneration [1]
O=C1C(Cc2ccc(Cl)cc2)CCN1c1ccc2c(c1)COc1cnccc1-2 (stereo not drawn) [Compound 1, 3-(4-chlorobenzyl)-1-(6H-isochromeno[3,4-c]pyridin-8-yl)pyrrolidin-2-one]	< 0.1	A (substantial protection (A) >50%)
O=C1C(Cc2ccccc2)CCN1c1ccc2c(c1)COc1cnccc1-2 (stereo not drawn) [Compound 2, 3-benzyl-1-(6H-isochromeno[3,4-c]pyridin-8-yl)pyrrolidin-2-one]	0.1 to 1	A (substantial protection (A) >50%)
O=C1C(Cc2ccc(Cl)cc2F)CCN1c1ccc2c(c1)COc1cnccc1-2 (stereo not drawn) [Compound 3]	1 to 10	
O=C1C(Cc2cc(F)cc(F)c2)CCN1c1ccc2c(c1)COc1cnccc1-2 (stereo not drawn) [Compound 4]	0.1 to 1	A (substantial protection (A) >50%)
O=C1C(Cc2cc(F)c(F)c(F)c2)CCN1c1ccc2c(c1)COc1cnccc1-2 (stereo not drawn) [Compound 5]	1 to 10	A (substantial protection (A) >50%)
O=C1C(Cc2ccc(Cl)s2)CCN1c1ccc2c(c1)COc1cnccc1-2 (stereo not drawn) [Compound 7]	1 to 10	A (substantial protection (A) >50%)
Cc1ccc(CC2CCN(c3ccc4c(c3)COc3cnccc3-4)C2=O)cc1 (stereo not drawn) [Compound 8]	1 to 10	
O=C1C(Cc2cccc(Cl)c2)CCN1c1ccc2c(c1)COc1cnccc1-2 (stereo not drawn) [Compound 9]	1 to 10	A (substantial protection (A) >50%)
O=C1C(Cc2ccc(F)cc2)CCN1c1ccc2c(c1)COc1cnccc1-2 (stereo not drawn) [Compound 10, 3-(4-fluorobenzyl)-1-(6H-isochromeno[3,4-c]pyridin-8-yl)pyrrolidin-2-one]	< 0.1	A (substantial protection (A) >50%)
O=C1C(Cc2ccc(F)cc2F)CCN1c1ccc2c(c1)COc1cnccc1-2 (stereo not drawn) [Compound 11]	1 to 10	A (substantial protection (A) >50%)
O=C1C(Cc2ccc(Cl)o2)CCN1c1ccc2c(c1)COc1cnccc1-2 (stereo not drawn) [Compound 12]	0.1 to 1	B (partial protection (B): 20% to 50%)
O=C1C(Cc2ccc(C(F)(F)F)cc2)CCN1c1ccc2c(c1)COc1cnccc1-2 (stereo not drawn) [Compound 14]	1 to 10	
N#Cc1ccc(CC2CCN(c3ccc4c(c3)COc3cnccc3-4)C2=O)cc1 (stereo not drawn) [Compound 16]	1 to 10	A (substantial protection (A) >50%)
O=C1C(Cc2ccc(Cl)nc2)CCN1c1ccc2c(c1)COc1cnccc1-2 (stereo not drawn) [Compound 17]	0.1 to 1	B (partial protection (B): 20% to 50%)
O=C1C(Cc2cc(F)c(Cl)c(F)c2)CCN1c1ccc2c(c1)COc1cnccc1-2 (stereo not drawn) [Compound 18]	1 to 10	B (partial protection (B): 20% to 50%)
O=C(CCc1ccc2c(c1)OCO2)Nc1ccc2c(c1)COc1cnccc1-2 [Compound 20]	< 0.1	
O=C(CCc1ccc([N+](=O)[O-])cc1)Nc1ccc2c(c1)COc1cnccc1-2 [Compound 23]	1 to 10	
O=C(CCc1ccc(OC(F)(F)F)cc1)Nc1ccc2c(c1)COc1cnccc1-2 [Compound 24]	0.1 to 1	
O=C(CCc1ccc(Cl)nc1)Nc1ccc2c(c1)COc1cnccc1-2 [Compound 26]	< 0.1	
O=C(CCc1cccc(Cl)c1)Nc1ccc2c(c1)COc1cnccc1-2 [Compound 31]	< 0.1	
O=C(Nc1ccc2c(c1)COc1cnccc1-2)C(F)Cc1ccc(Cl)cc1 (stereo not drawn) [Compound 35]	0.1 to 1	
O=C(CCc1ccccc1)Nc1ccc2c(c1)COc1cnccc1-2 [Compound 38]	< 0.1	
O=C(CCc1cc(F)c(Cl)c(F)c1)Nc1ccc2c(c1)COc1cnccc1-2 [Compound 43]	< 0.1	

SMILES	IC50 (SARM1) [µM]	Degree of Protection Against Axonal Wallerian Degeneration [1]
N#Cc1c(F)cc(CCC(=O)Nc2ccc3c(c2)COc2cnccc2-3)cc1F [Compound 44]	< 0.1	
O=C(NCc1cc(F)cc(F)c1)Nc1ccc2c(c1)COc1cnccc1-2 [Compound 48]	0.1 to 1	
CN(C(=O)CCc1ccc(F)cc1)c1ccc2c(c1)COc1cnccc1-2 [Compound 49, 3-(4-fluorophenyl)-N-(6H-isochromeno[3,4-c]pyridin-8-yl)-N-methylpropanamide]	1 to 10	
O=C(Cc1ccc(F)cc1)Nc1ccc2c(c1)COc1cnccc1-2 [Compound 51]	1 to 10	
NC(Cc1ccc(F)cc1)C(=O)Nc1ccc2c(c1)COc1cnccc1-2 (stereo not drawn) [Compound 52, 2-amino-3-(4-fluorophenyl)-N-(6H-isochromeno[3,4-c]pyridin-8-yl)propanamide]	0.1 to 1	
O=C1C(Cc2ccc(F)cc2)CCN1c1ccc2c(c1)COCc1cnccc1-2 (stereo not drawn) [Compound 53, 1-(5,7-dihydrobenzo[5,6]oxepino[3,4-c]pyridin-9-yl)-3-(4-fluorobenzyl)pyrrolidin-2-one]	1 to 10	
O=C1C(Cc2ccc3ocnc3c2)CCN1c1ccc2c(c1)COc1cnccc1-2 (stereo not drawn) [Compound 61]	0.1 to 1	
O=C(NCc1ccc2c(c1)OCO2)Nc1ccc2c(c1)COc1cnccc1-2 [Compound 64]	1 to 10	
O=C(NCc1ccc(Cl)nc1)Nc1ccc2c(c1)COc1cnccc1-2 [Compound 66]	0.1 to 1	
O=C(NCc1cccc(Cl)c1)Nc1ccc2c(c1)COc1cnccc1-2 [Compound 69]	1 to 10	
CN(C)c1ccc(CCC(=O)Nc2ccc3c(c2)COc2cnccc2-3)cc1 [Compound 79]	1 to 10	
O=C(CCc1ccc2ccccc2c1)Nc1ccc2c(c1)COc1cnccc1-2 [Compound 81]	1 to 10	
O=C(CCc1cccc2ccccc12)Nc1ccc2c(c1)COc1cnccc1-2 [Compound 82]	1 to 10	
O=C(CCc1ccc2c(c1)CCO2)Nc1ccc2c(c1)COc1cnccc1-2 [Compound 83]	0.1 to 1	
Cc1c(NC(=O)CCc2ccc(F)cc2)ccc2c1COc1cnccc1-2 [Compound 131, 3-(4-fluorophenyl)-N-(7-methyl-6H-isochromeno[3,4-c]pyridin-8-yl)propanamide]	1 to 10	
CC(C)c1cncc2c1-c1ccc(NC(=O)CCc3ccc(F)cc3)cc1CO2 [Compound 141]	1 to 10	
C#Cc1ccc(CCC(=O)Nc2ccc3c(c2)COc2cnccc2-3)cc1 [Compound 148]	< 0.1	
C=Cc1ccc(CC2CCN(c3ccc4c(c3)COc3cnccc3-4)C2=O)cc1 (stereo not drawn) [Compound 149]	1 to 10	
O=C1N(Cc2ccc(F)cc2)CCN1c1ccc2c(c1)COc1cnccc1-2 [Compound 150]	< 0.1	
CN(Cc1ccc(F)cc1)C(=O)Nc1cnc2c(c1)COc1cnccc1-2 [Compound 153]	< 0.1	
O=C1[C@H](Cc2ccc(F)cc2)CCN1c1ccc2c(c1)COc1cnccc1-2 [Compound 154]	< 0.1	
O=C1[C@@H](Cc2ccc(F)cc2)CCN1c1ccc2c(c1)COc1cnccc1-2 [Compound 155]	< 0.1	
